Measurements: patent US6638953B2, “Indole derivatives as 5-HT receptor antagonist” (SmithKline Beecham p.l.c., priority 1995, dated 2003)
Structures can show the parent of a compound that is named as a salt.

`Cc1ncccc1Oc1ccc(NC(=O)N2CCc3cc(Br)c(C(F)(F)F)cc32)cn1` showed a melting point of 211 to 213 °C.
In the case of `CSc1cc2c(cc1C(F)(F)F)N(C(=O)Nc1cc(F)cc(-c3cccnc3)c1)CC2` (as salt: hydrochloride) [Example 25, 1-(3-Fluoro-5-(pyrid-3-yl)phenylcarbamoyl)5-thiomethyl-6-trifluoromethyl-indoline Hydrochloride], the melting point is reported as 202 to 203 °C.
In the case of `COc1cc2c(cc1C(F)(F)F)N(C(=O)Nc1ccc(-c3cccnc3)cc1)CC2` [Example 4, 1-[(3-Pyridyl)-4-phenyl Carbamoyl]-5-methoxy-6-trifluoromethylindoline], the melting point is reported as > 230 °C.
In the case of `COc1cc2c(cc1C(F)(F)F)N(C(=O)Nc1ccc(-c3ccncc3)cc1)CC2` [Example 5, 1-[(4-Pyridyl)-4-phenyl Carbamoyl]-5-methoxy-6-trifluoromethyl Indoline], the melting point is reported as > 210 °C.
For `COc1cc2c(cc1C(F)(F)F)N(C(=O)Nc1cc(-c3cccnc3)ccc1F)CC2` [Example 9, 1-[2-Fluoro-5-(3-pyridyl) Phenyl Carbamoyl]-5-methoxy-6-trifluoromethyl Indoline], the melting point was 233 °C (dec.).
`CSc1cc2c(cc1C(F)(F)F)N(C(=O)Nc1cncc(-c3ccccc3)c1)CC2` [Example 11, 1-(5-Phenyl Pyrid-3-yl Carbamoyl)-5-methylthio-6-trifluoromethyl Indoline] showed a melting point of 208 to 214 °C.
Compound `COc1cc2c(cc1C(F)(F)F)N(C(=O)Nc1cncc(-c3cccnc3)c1)CC2` [Example 12, 1-[5-(3-Pyridyl)-pyrid-3-yl Carbamoyl]-5-methoxy-6-trifluoromethyl Indoline] has a melting point of 113 to 114 °C.
`COc1cc2c(cc1C(F)(F)F)N(C(=O)Nc1cncc(-c3ccc(C(F)(F)F)cc3)c1)CC2` [Example 13, 1-[5-(4-Trifluoromethylphenyl)-pyrid-3-yl Carbamoyl]-5-methoxy-6-trifluoromethyl Indoline] gave a melting point of 199 to 202 °C.
For `COc1cc2c(cc1C(F)(F)F)N(C(=O)Nc1cncc(-c3ccc(C)cc3)c1)CC2` [Example 14, 1-[5-(4-Methylphenyl)-pyrid-3-yl Carbamoyl]-5-methoxy-6-trifluoromethyl Indoline], the melting point was 190 to 191 °C.
Work on `COc1cc2c(cc1C(F)(F)F)N(C(=O)Nc1cncc(-c3cccs3)c1)CC2` [Example 15, 1-[5-(2-Thienyl)-pyrid-3-yl Carbamoyl]-5-methoxy-6-trifluoromethyl Indoline] yielded a melting point of 193 to 208 °C.
In the case of `COc1cc2c(cc1C(F)(F)F)N(C(=O)Nc1cncc(-c3ccsc3)c1)CC2` [Example 16, 1-[5-(3-Thienyl)-pyrid-3-yl Carbamoyl]-5-methoxy-6-trifluoromethyl Indoline], the melting point is reported as 165 to 167 °C.
With `COc1cc2c(cc1C(F)(F)F)N(C(=O)Nc1cncc(-c3ccc[nH]3)c1)CC2` [Example 17, 1-[5-(2-Pyrrolyl)-pyrid-3-yl Carbamoyl]-5-methoxy-6-trifluoromethyl Indoline] the melting point was 218 to 219 °C.
`COc1cc2c(cc1C(F)(F)F)N(C(=O)Nc1cncc(-c3ccncc3)c1)CC2` [Example 18, 1-[5-(4-Pyridyl)-pyrid-3-yl Carbamoyl]-5-methoxy-6-trifluoromethyl Indoline] showed a melting point of 230 to 234 °C.
With `COc1cc2c(cc1C(F)(F)F)N(C(=O)Nc1cncc(-c3c(F)cccc3F)c1)CC2` [Example 22, 1-(5-(2,6-Difluorophenyl)-3-pyridylcarbamoyl)-5-methoxy-6-trifluoromethylindoline] the melting point was 217 to 219 °C.
`Cc1cc2c(cc1Cl)N(C(=O)Nc1ccc(C)c(-c3cccnc3)c1)CC2` [Example 23, 6-Chloro-5-methyl-1-(4-methyl-3-(pyrid-3-yl)-phenylcarbamoyl) Indoline] gave a melting point of 202 to 203 °C.
With `COc1cc2c(cc1C(F)(F)F)N(C(=O)Nc1cccc(-c3noc(C)n3)c1)CC2` [Example 27, 5-Methoxy-1-(5-methyl-(1,2-4-oxadiazol-3-yl)-phenylcarbamoyl)-6-trifluoromethyl Indoline] the melting point was 203 to 204 °C.
In the case of `COc1cc2c(cc1C(F)(F)F)N(C(=O)Nc1cc(Br)c(C)c(-c3cccnc3)c1)CC2` [Example 33, 1-[3-Bromo-4-methyl-5-(3-pyridyl)phenylcarbamoyl]-5-methoxy-6-trifluoromethylindoline], the melting point is reported as 216 to 218 °C.
With `COc1cc2c(cc1C(F)(F)F)N(C(=O)Nc1cccc(-c3cncc4ccccc34)c1)CC2` [Example 34, 1-[3-(4-Isoquinolyl)phenylcarbamoyl]-5-methoxy-6-trifluoromethyl Indoline] the melting point was 211 to 215 °C.
For `COc1cc2c(cc1C(F)(F)F)N(C(=O)Nc1ccc(-c3cccnc3)nc1)CC2` [Example 36, 1-[6-(3-Pyridyl)-pyrid-3-ylcarbamoyl]-5-methoxy-6-trifluoromethylindoline], the melting point was > 270 °C.
Compound `COc1cc2c(cc1C(F)(F)F)N(C(=O)Nc1ccc3c(ccn3-c3ccncc3)c1)CC2` [Example 59, 1-(1-(4-Pyridyl)-5-indolylcarbamoyl)-5-methoxy-6-trifluoromethylindoline] has a melting point of 206 to 211 °C.
With `COc1cc2c(cc1C(F)(F)F)N(C(=O)Nc1ccc(CSc3ccncc3)cc1)CC2` [Example 60, 5-Methoxy-6-trifluoromethyl-1-[4-(pyridin-4-ylthiomethyl)phenyl Carbamoyl]indoline] the melting point was 174 to 175 °C.
For `COc1cc2c(cc1C(F)(F)F)N(C(=O)Nc1ccc(SCc3ccncc3)cc1)CC2` [Example 62, 5-Methoxy-6-trifluoromethyl-1-[4-(pyridin-4-ylmethylthio)phenyl Carbamoyl]indoline], the melting point was 160 to 163 °C.
Work on `COc1cc2c(cc1C(F)(F)F)N(C(=O)Nc1ccnc(Oc3cccnc3)c1)CC2` [Example 64] yielded a melting point of 223 to 225 °C.
`CSc1cc2c(cc1C(F)(F)F)N(C(=O)Nc1ccc(Oc3ccc(C)nc3)nc1)CC2` [Example 66, 5-Methylthio-6-trifluoromethyl-1-[6-(6-methylpyridin-3-yloxy)pyridin-3-ylcarbamoyl]indoline] gave a melting point of 206 to 208 °C.
`COc1cc2c(cc1C(F)(F)F)N(C(=O)Nc1ccc(Sc3cccnc3)nc1)CC2` [Example 67, 5-Methoxy-6-trifluoromethyl-1-[6-(pyridin-3-ylthio)pyridin-3-ylcarbamoyl]indoline] gave a melting point of 208 to 210 °C.
In the case of `CSc1cc2c(cc1C(F)(F)F)N(C(=O)Nc1ccc(C(=O)NCc3cccnc3)cc1)CC2` [Example 68, 5-Methylthio-6-trifluoromethyl-1-[4-(pyrid-3-ylmethyl)amido Phenyl Carbamoyl]indoline], the melting point is reported as > 250 °C.
In the case of `COc1cc2c(cc1C(F)(F)F)N(C(=O)Nc1ccc3c(ccn3Cc3cccnc3)c1)CC2` [Example 71, 1-(1-(3-Pyridylmethyl)-5-indolylcarbamoyl)-5-methoxy-6-trifluoromethylindoline], the melting point is reported as 243 to 246 °C.
`COc1cc2c(cc1C(F)(F)F)N(C(=O)Nc1ccc3c(ccn3Cc3ccncc3)c1)CC2` [Example 72, 1-(1-(4-Pyridylmethyl)-5-indolylcarbamoyl)-5-methoxy-6-trifluoromethylindoline] gave a melting point of 215 to 218 °C.
In the case of `COc1cc2c(cc1C(F)(F)F)N(C(=O)Nc1ccc3c(ccn3-c3cccnc3)c1)CC2` [Example 73, 1-(1-(3-Pyridyl)-5-indolylcarbamoyl)-5-methoxy-6-trifluoromethyl Indoline], the melting point is reported as 202 to 204 °C.
